Reference: patent US20020193319A1, “Use of EGF genistein to prevent development of EGF-receptor expressing cancers” (Parker Hughes Institute, priority 1999, published 2002)
Read-outs that look alike come from different tables or passages of the source.

Assays:
MDA-MB-231 cells = experiment: FACS MC540/propidium iodide apoptosis assay; assay type: cell-based, human; settings: 24 hours
Description: Fluorescence activated cell sorting (FACS) was used to sort MDA-MB-231 cells (breast cancer cells expressing EGF-Rc). The cells were treated with either PBS EFG-Genistein (0.1, 1, and 10 μM) or unconjugated Geninstein (1, 10, and 100 μM) and incubated for 24 hours. The cells were then stained with MC-540 and propidium iodide. Single MC540 fluorescence (S-MC540) indicates the cell is at an early stage of apoptosis. Dual MC540/propidium iodide fluorescence (D-MC540/PI) indicates the cell is at an advanced stage of apoptosis. The total apoptotic fraction (TAF) is calculated as the percentage of MC540 fluorescent cells plus the percentage of MC540/propidium iodide double fluorescent cells.

[1] = system: human breast cancer (MDA-MB-231) xenografts; assay type: in vivo; settings: 100 μg/kg/day intraperitoneally for 10 days, followed 20 days, vs PBS or unconjugated Genistein
Description: The tumor diameter was determined daily for 20 days from the start of therapy. Control mice were treated with 0.2 ml of PBS for 10 consecutive days or unconjugated Genistein at a concentration of 500 μg/kg/day for 10 days. P values were determined using Student's t test.

[2] = system: Neu mediated mammary tumors; experiment: Prevention of spontaneous breast cancer in Neu/erbB2 transgenic mice; assay type: in vivo
Description: Neu/erbB2 transgenic mice were chosen because they overexpress the Neu protooncogene in their mammary glands.
As a control, 29 Neu/erbB2 mice were treated with PBS.

With “EGF: Human epidermal growth factor, six kilodalton 53 amino acid single-chain polypeptide” the “% D-MC540/PI (Dual MC540/propidium iodide, advanced stage of apoptosis)” value (MDA-MB-231 cells; 1 μM) was 0.8%, the “% S-MC540 (Single MC540, early stage of apoptosis)” value (“% S-MC540” for short) (MDA-MB-231 cells; 1 μM) was 5.5% and the “% TAF (total apoptotic fraction: Single MC540 plus Dual MC540/propidium iodide)” value (MDA-MB-231 cells; 1 μM) was 6.3%. For the same substance, the “% D-MC540/PI (Dual MC540/propidium iodide, advanced stage of apoptosis)” value (MDA-MB-231 cells; 10 μM) was 1.2%, the “% S-MC540” value (MDA-MB-231 cells; 10 μM) was 9.5% and the “% TAF (total apoptotic fraction: Single MC540 plus Dual MC540/propidium iodide)” value (MDA-MB-231 cells; 10 μM) was 10.7%. The “% D-MC540/PI (Dual MC540/propidium iodide, advanced stage of apoptosis)” value (MDA-MB-231 cells; 100 μM) was 2.0%, the “% S-MC540” value (MDA-MB-231 cells; 100 μM) was 13.5% and the “% TAF (total apoptotic fraction: Single MC540 plus Dual MC540/propidium iodide)” value (MDA-MB-231 cells; 100 μM) was 15.5%.
For “EGF-Genistein: Genistein conjugated to epidermal growth factor (EGF), prepared as in Example 1 of U.S. Pat. No. 5,911,995”, the “% S-MC540” value (MDA-MB-231 cells; 0.1 μM) was 78.8%, the “% TAF (total apoptotic fraction: Single MC540 plus Dual MC540/propidium iodide)” value (MDA-MB-231 cells; 0.1 μM) was 98.7% and the “% D-MC540/PI (Dual MC540/propidium iodide, advanced stage of apoptosis)” value (MDA-MB-231 cells; 1 μM) was 36.6%. The “% S-MC540” value (MDA-MB-231 cells; 1 μM) was 61.0%, the “% TAF (total apoptotic fraction: Single MC540 plus Dual MC540/propidium iodide)” value (MDA-MB-231 cells; 1 μM) was 97.6% and the “% D-MC540/PI (Dual MC540/propidium iodide, advanced stage of apoptosis)” value (MDA-MB-231 cells; 10 μM) was 56.7%. The “% S-MC540” value (MDA-MB-231 cells; 10 μM) was 42.2%, the “% TAF (total apoptotic fraction: Single MC540 plus Dual MC540/propidium iodide)” value (MDA-MB-231 cells; 10 μM) was 98.9% and the “tumor progression (tumor diameter)” value ([1]; 0.5 cm xenograft, FIG. 3A) was “reversed”. The “tumor progression (tumor diameter)” value ([1]; 1.0 cm xenograft, FIG. 3B) was “slowed”, the side effects ([2]; 100 μg 1× per week for 10 weeks) was “not associated with any side effects” and the “mice that developed breast cancer” value ([2]; 100 μg subcutaneously 1× per week for 10 weeks (5 mg/kg), from 4 months old, n=10) was 40%.
